US11583524B2, “Inhibitors of the interaction between MDM2 and P53” (Janssen Pharmaceutica NV, priority 2007, dated 2023)

Assays:
Assay type in all cases: cell-based, human
p53 in A2780 cells = experiment: p53 ELISA (preservation of p53 in A2780 cells); details: lowest dose giving at least 140% of the p53 value in the control, 16 hours treatment; for minimal effective concentration: Homo sapiens, read-out: p53-elisa LAD
Description: The capacity of the compounds to preserve p53 in A2780 cells was measured with the p53 enzyme linked immunosorbent assay (ELISA). The p53 assay is a “sandwich” enzyme immunoassay employing two polyclonal antibodies. A polyclonal antibody, specific for the p53 protein, has been immobilized onto the surface of the plastic wells. Any p53 present in the sample to be assayed will bind to the capture antibody. The biotinylated detector polyclonal antibody also recognizes p53 protein, and will bind to any p53, which has been retained by the capture antibody. The detector antibody, in turn, is bound by horseradish peroxidase-conjugated streptavidin. The horseradish peroxidase catalyses the conversion of the chromogenic substrate o-phenylene diamine, the intensity of which is proportional to the amount of p53 protein bound to the plate. The coloured reaction product is quantified using a spectrophotometer. Quantitation is achieved by the construction of a standard curve using known concentrations of purified recombinant HIS tagged p53 protein (see example C.1).
A2780 cells (ATCC) were cultivated in RPMI 1640 supplemented with 10% fetal calf serum (FCS), 2 mM L-glutamine and gentamycin at 37° C. in a humidified incubator with 5% CO2.
A2780 cells were seeded at 20.000 cells per well in a 96 well plate, cultured for 24 hours and treated with compound for 16 hours at 37° C. in a humidified incubator. After incubation, the cells were washed once with phosphate-buffered saline and 30 μl, per well, low salt RIPA buffer (20 mM tris, pH7.0, 0.5 mM EDTA, 1% Nonidet P40, 0.5% DOC, 0.05% SDS, 1 mM PMSF, 1 μg/ml aprotinin and 0.5 μ/ml leupeptin) was added. Plates were placed on ice for 30 minutes to complete the lysis. p53 protein was detected in de lysates by using the sandwich ELISA, described below.
High binding polystyrene EIA/RIA 96 well plates (Costar 9018) were coated with the capture antibody pAb1801 (Abcam ab28-100) at a concentration of 1 μg/ml in coating buffer (0.1 M NaHCO3 pH8.2), 50 μl per well. The antibody was allowed to adhere overnight at 4° C. Coated plates were washed once with phosphate-buffered saline (PBS)/0.05% Tween 20 and 300 μl of blocking buffer (PBS, 1% bovine serum albumins (BSA)) was added, for an incubation period of 2 hours at room temperature. Dilutions of purified recombinant HIS tagged p53 protein, ranging from 3-200 ng/ml, were made in blocking buffer and used as standards.
Plates were washed twice with PBS/0.05% Tween 20 and blocking buffer or standards were added at 80 μl/well. To the standards, 20 μl of lysis buffer was added. The samples were added to the other wells at 20 μl lysate/well. After an overnight incubation at 4° C., plates were washed twice with PBS/0.05% Tween 20. Aliquots of 100 μl secondary polyclonal antibody p53(FL-393) (Tebubio, sc-6243) at a concentration of 1 μg/ml in blocking buffer were added to each well and allowed to adhere for 2 hours at room temperature. Plates were washed three times with PBS/0.05% Tween 20. Detection antibody anti-rabbit HRP (sc-2004, Tebubio) at 0.04 μg/ml in PBS/1% BSA was added and incubated for 1 hour at room temperature. Plates were washed three times with PBS/0.05% Tween 20 and 100 μl of substrate buffer was added (substrate buffer was prepared shortly before use by adding 1 tablet of 10 mg o-phenylene diamine (OPD) from Sigma and 125 μl 3% H2O2 to 25 ml OPD buffer: 35 mM citric acid, 66 mM Na2HPO4, pH5.6). After 5 to 10 minutes, colour reaction was stopped by adding 50 μl stop buffer (1 M H2SO4) per well. The absorbance at dual wavelengths of 490/655 nm was measured using a Biorad micro plate reader and the results were then analyzed.
For each experiment, controls (containing no drug) and a blank incubation (containing no cells or drugs) were run in parallel. The blank value was subtracted from all control and sample values. For each sample, the value of p53 (in absorbance units) was expressed as the percentage of the value for p53 present in the control. […]

[1] = tested on: A2780 ovarian cancer cells; experiment: Alamar Blue cell proliferation assay, A2780; details: 4-day incubation; for IC50: Homo sapiens, 96 h, read-out: A2780 cell proliferation inhibition pIC50 (converted)
Description: Cellular activity of the compounds of formula (I) was determined on A2780 tumour cells using a colorimetric assay for cell toxicity or survival (see example C.2).
The human A2780 ovarian cancer cells were a kind gift from Dr. T. C. Hamilton (Fox Chase Cancer Centre, Pennsylvania, U.S.A.). The cells were cultured in RPMI 1640 medium supplemented with 2 mM L-Glutamine, 50 μg/ml gentamicin and 10% fetal calf serum.
(§1) Resazurin was purchased from Aldrich (Prod. No. 199303). Potassium ferrocyanide, potassium ferricyanide, KH2PO4 and K2HPO4 were purchased from Sigma (Prod. Nos. P9387, P8131, P5655 and P8281, respectively).
(§2) Potassium Phosphate Buffer 0.1 M (PPB) was made as follows: 2.72 gram KH2PO4 and 13.86 gram K2HPO4 were dissolved in 500 ml milli-Q H2O, the pH was adjusted to pH 7.4 and the volume was brought to 1 litre with milli-Q H2O; the buffer was filter sterilised and stored at room temperature. Resazurin stock solution (PPB-A) was prepared fresh by dissolving 45 mg resazurin in 15 ml PBS. 30 mM potassium ferricyanide (PPB-B) was prepared by dissolving 0.987 gram potassium ferricyanide in 100 ml PPB. 30 mM potassium ferrocyanide (PPB-C) was prepared by dissolving 1.266 gram potassium ferrocyanide in 100 ml PPB.
(§3) Mixture of PPB-A, PPB-B and PPB-C was prepared by mixing equal volumes of the respective solutions. Resazurin work solution (herein termed “Alamar Blue” solution) was prepared by diluting said mixture 20×(vol/vol) in PPB and filter sterilising; the Alamar Blue solution could be kept at 4° C. for a maximum of 2 weeks.
(§4) For experiments in 384 wells plates the cells were seeded at a density of 5×10^3 cells/ml in Falcon 384-well culture plates (Life Technologies, Merelbeke, Belgium), black with clear bottom, in 45 μl culture medium. Cells were allowed to adhere to plastic for 24 hr. The tested compound was pre-diluted (1/50 in culture medium) and 5 μl pre-diluted compound was added to the wells. Following 4-day incubation, 10 μl of the Alamar Blue solution was added to each well and the cells were further incubated for 5 hrs (A2780) or 6 hrs (U87MG) at 37° C. The fluorescence intensity was measured for each well with a Fluorescence plate reader (Fluorskan, Labsystems, 540 nm excitation and 590 nm emission)
(§5) The antiproliferative activity was calculated as percentage of remaining viable cells in treated versus control (untreated cells) conditions. Within an experiment, the result for each experimental condition is the mean of 3 replicate wells. When appropriate, the experiments were repeated to establish full concentration-response curves. When appropriate, IC50-values (concentration of the drug, needed to reduce cell growth to 50% of the control) were computed using probit analysis for graded data (Finney, D. J., Probit Analyses, 2nd Ed. Chapter 10, Graded Responses, Cambridge University Press, Cambridge 1962). Herein the effects of test compounds are expressed as pIC50 (the negative log value of the IC50-value) (see Table 4).

U87MG glioma cells = experiment: Alamar Blue cell proliferation assay, U87MG; details: 4-day incubation; for IC50: Homo sapiens, U-87 MG, 96 h, read-out: U87MG cell proliferation inhibition pIC50 (converted)
Description: The human U87MG glioma cells were cultured in DMEM medium supplemented with 2 mM L-Glutamine, 1 mM Sodium Pyruvate, 1.5 g/L Sodium Bicarbonate, 50 μg/ml gentamicin and 10% heat inactivated fetal calf serum. (U87MG cells are human glioblastoma cells with wild type p53. In this cell line MDM2 tightly controls p53 expression).
as §1, §2, §3, §4, §5

COc1ccc2c(CCNc3c(F)cc(Nc4ccncc4)cc3F)c[nH]c2c1 [Compound 13]
p53-elisa LAD (p53 in A2780 cells): >10.0 µM | A2780 cell proliferation inhibition pIC50 [1]: <5 | U87MG cell proliferation inhibition pIC50 (U87MG glioma cells): 5.18

Cc1cccc2c(CCNc3c(Cl)cc(Nc4ccncc4)cc3Cl)c[nH]c12 [Compound 21]
p53-elisa LAD (p53 in A2780 cells): >10.0 µM | A2780 cell proliferation inhibition pIC50 [1]: <5 | U87MG cell proliferation inhibition pIC50 (U87MG glioma cells): <5

Cc1[nH]c2ccccc2c1CCNc1c(Cl)cc(Nc2ccnc3c2CCC3O)cc1Cl (centres unmarked) [Compound 34]
p53-elisa LAD (p53 in A2780 cells): 1.0 µM | A2780 cell proliferation inhibition pIC50 [1]: 5.67 | U87MG cell proliferation inhibition pIC50 (U87MG glioma cells): 5.14

N#Cc1c(NCCc2c[nH]c3ccccc23)ccc(Nc2ccnc3c2CCC3O)c1N1CCOCC1 (centres unmarked) [Compound 57]
p53-elisa LAD (p53 in A2780 cells): >10.0 µM | A2780 cell proliferation inhibition pIC50 [1]: <5 | U87MG cell proliferation inhibition pIC50 (U87MG glioma cells): <5

COc1c(Nc2ccnc3c2CCC3O)ccc(NCCc2c[nH]c3c(C(C)(C)O)cccc23)c1F (centres unmarked) [Compound 63]
minimal effective concentration (p53 in A2780 cells): 1 µM | IC50 [1]: 74.1 nM | IC50 (U87MG glioma cells): 468 nM

COc1ccc2c(CCNc3c(F)cc(Nc4ccnc5c4CCC5O)cc3F)c[nH]c2c1 (centres unmarked) [Compound 19]
p53-elisa LAD (p53 in A2780 cells): >10.0 µM | A2780 cell proliferation inhibition pIC50 [1]: <5 | U87MG cell proliferation inhibition pIC50 (U87MG glioma cells): 5.15

OCc1cc(Nc2cc(Br)c(NCCc3c[nH]c4ccccc34)cc2CO)ccn1 [Compound 52]
p53-elisa LAD (p53 in A2780 cells): >10.0 µM | A2780 cell proliferation inhibition pIC50 [1]: <5 | U87MG cell proliferation inhibition pIC50 (U87MG glioma cells): 5.33

COc1ccc2c(CCNc3c(Cl)cc(Nc4ccnc(CO)c4)cc3Cl)c[nH]c2c1 [Compound 27]
p53-elisa LAD (p53 in A2780 cells): >10.0 µM | A2780 cell proliferation inhibition pIC50 [1]: <5 | U87MG cell proliferation inhibition pIC50 (U87MG glioma cells): <5

Clc1cc(Nc2ccncc2)cc(Cl)c1NCCc1c[nH]c2ccccc12 [Compound 20]
p53-elisa LAD (p53 in A2780 cells): >10.0 µM | A2780 cell proliferation inhibition pIC50 [1]: <5 | U87MG cell proliferation inhibition pIC50 (U87MG glioma cells): <5

COc1cccc2c(CCNc3c(Cl)cc(Nc4ccnc5c4CCC5O)cc3Cl)c[nH]c12 (centres unmarked) [Compound 37]
p53-elisa LAD (p53 in A2780 cells): 3.0 µM | A2780 cell proliferation inhibition pIC50 [1]: <5 | U87MG cell proliferation inhibition pIC50 (U87MG glioma cells): <5

Cc1cccc2c(CCNc3ccc(Nc4ccnc5c4CCC5O)c(N4CCOCC4)c3C#N)c[nH]c12 (centres unmarked) [Compound 58]
p53-elisa LAD (p53 in A2780 cells): >10.0 µM | A2780 cell proliferation inhibition pIC50 [1]: <5 | U87MG cell proliferation inhibition pIC50 (U87MG glioma cells): <5

COc1ccc2c(CCNc3c(F)cc(Nc4ccnc(CO)c4)cc3F)c[nH]c2c1 [Compound 16]
p53-elisa LAD (p53 in A2780 cells): >10.0 µM | A2780 cell proliferation inhibition pIC50 [1]: <5 | U87MG cell proliferation inhibition pIC50 (U87MG glioma cells): <5

COc1cccc2c(CCNc3c(Cl)cc(Nc4ccnc(CO)c4)cc3Cl)c[nH]c12 [Compound 28]
p53-elisa LAD (p53 in A2780 cells): >10.0 µM | A2780 cell proliferation inhibition pIC50 [1]: <5 | U87MG cell proliferation inhibition pIC50 (U87MG glioma cells): <5

Cc1cccc2c(CCNc3c(Cl)cc(Nc4ccnc5c4CCC5O)cc3Cl)c[nH]c12 (centres unmarked) [Compound 35]
p53-elisa LAD (p53 in A2780 cells): 1.0 µM | A2780 cell proliferation inhibition pIC50 [1]: <5 | U87MG cell proliferation inhibition pIC50 (U87MG glioma cells): <5

Cc1cccc2c(CCNc3c(Cl)cc(Nc4ccnc5ccccc45)cc3Cl)c[nH]c12 [Compound 30]
p53-elisa LAD (p53 in A2780 cells): 1.0 µM | A2780 cell proliferation inhibition pIC50 [1]: 5.08 | U87MG cell proliferation inhibition pIC50 (U87MG glioma cells): 5.06

COc1c(Nc2ccnc3c2CCC3O)ccc(NCCc2c[nH]c3c(CO)cccc23)c1F (centres unmarked) [Compound 62]
minimal effective concentration (p53 in A2780 cells): 3 µM | IC50 [1]: 912 nM | IC50 (U87MG glioma cells): 1290 nM

COc1cccc2c(CCNc3c(Cl)cc(Nc4ccnc5ccccc45)cc3Cl)c[nH]c12 [Compound 32]
p53-elisa LAD (p53 in A2780 cells): >10.0 µM | A2780 cell proliferation inhibition pIC50 [1]: <5 | U87MG cell proliferation inhibition pIC50 (U87MG glioma cells): 5.48

COc1ccc2c(CCNc3c(Cl)cc(Nc4ccncc4)cc3Cl)c[nH]c2c1 [Compound 22]
p53-elisa LAD (p53 in A2780 cells): >10.0 µM | A2780 cell proliferation inhibition pIC50 [1]: <5 | U87MG cell proliferation inhibition pIC50 (U87MG glioma cells): 5.29

OC1CCc2c(Nc3cc(Cl)c(NCCc4c[nH]c5ccccc45)c(Cl)c3)ccnc21 (centres unmarked) [Compound 33]
p53-elisa LAD (p53 in A2780 cells): 3.0 µM | A2780 cell proliferation inhibition pIC50 [1]: <5 | U87MG cell proliferation inhibition pIC50 (U87MG glioma cells): <5

COc1cccc2c(CCNc3c(Cl)cc(Nc4ccncc4)cc3Cl)c[nH]c12 [Compound 23]
p53-elisa LAD (p53 in A2780 cells): >10.0 µM | A2780 cell proliferation inhibition pIC50 [1]: <5 | U87MG cell proliferation inhibition pIC50 (U87MG glioma cells): <5

COc1ccc2c(CCNc3c(Cl)cc(Nc4ccnc5c4CCC5O)cc3Cl)c[nH]c2c1 (centres unmarked) [Compound 36]
p53-elisa LAD (p53 in A2780 cells): 10.0 µM | A2780 cell proliferation inhibition pIC50 [1]: <5 | U87MG cell proliferation inhibition pIC50 (U87MG glioma cells): 5.08

OCc1cc(Nc2cc(F)c(NCCc3c[nH]c4ccccc34)c(F)c2)ccn1 [Compound 14]
minimal effective concentration (p53 in A2780 cells): > 10 µM | IC50 [1]: > 10000 nM | IC50 (U87MG glioma cells): > 10000 nM

OCc1cc(NCCc2c[nH]c3ccccc23)c(Br)cc1Nc1ccnc2c1CCC2O (centres unmarked) [Compound 54]
p53-elisa LAD (p53 in A2780 cells): >10.0 µM | A2780 cell proliferation inhibition pIC50 [1]: <5
